Common to all, as to format: cell-based
The target in experiment [1] is T1, human glucose-dependent insulinotropic peptide receptor (GIPR) (Homo sapiens, UniProt P48546).
T1 construct: expressed in transfected cells
T1 sequence (P48546 22-466): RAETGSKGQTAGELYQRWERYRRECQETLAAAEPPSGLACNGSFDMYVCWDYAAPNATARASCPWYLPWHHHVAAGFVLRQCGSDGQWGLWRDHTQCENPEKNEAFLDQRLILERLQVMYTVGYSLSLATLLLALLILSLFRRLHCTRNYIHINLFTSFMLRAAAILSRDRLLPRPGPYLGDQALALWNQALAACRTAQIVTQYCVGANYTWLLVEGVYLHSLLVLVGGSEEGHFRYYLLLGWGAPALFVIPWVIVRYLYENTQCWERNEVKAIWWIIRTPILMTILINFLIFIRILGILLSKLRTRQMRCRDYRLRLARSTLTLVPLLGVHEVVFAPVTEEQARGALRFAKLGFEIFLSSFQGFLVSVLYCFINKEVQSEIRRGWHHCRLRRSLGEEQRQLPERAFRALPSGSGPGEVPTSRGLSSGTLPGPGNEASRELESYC
The experiment is described as follows: cAMP assay, human GIPR cells. The essentials:
(§1)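 Peptide-stimulated cAMP measured by two-step HTRF after a 30 min room-temperature incubation with receptor-expressing cells (hGLP-1R, hGIPR at 1×10^5 cells/ml; hGCGR at 2×10^5 cells/ml). Duplicate dilutions; EC50 from 4-parameter logistic fit of % Delta F.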
On the technique in general: Cyclic AMP is a second messenger, typically raised through Gs and lowered through Gi signalling.

The target in experiment [2] is T2, human GLP-1 receptor (GLP-1R) (Homo sapiens, UniProt P43220).
T2 construct: expressed in transfected cells
Description: cAMP assay, human GLP-1R cells. The procedure, abridged:
as §1

Experiment [3] addresses T3, human glucagon receptor (GCGR) (Homo sapiens, UniProt P47871).
T3 construct: expressed in transfected cells
Description: cAMP assay, human GCGR cells. The procedure, abridged:
as §1

The mark [4] stands for this setting: first run (n1), cAMP activity, read-out: Primary assay EC50 GIP-R.
The mark [5] stands for this setting: second run (n2), cAMP activity, read-out: Primary assay EC50 GIP-R.
[6] abbreviates: first run (n1), cAMP activity, read-out: Primary assay EC50 GLP-1R n1.
Setting [7] is: mean of n1 and n2, read-out: Mean pM GLP-1R.
Setting [8] is: second run (n2), cAMP activity, read-out: Primary assay EC50 GLP-1R n2.
Where [9] appears, read: first run (n1), cAMP activity of substituted and mono-lipidated peptides, read-out: Primary assay EC50 Gluc-R.
[10] abbreviates: second run (n2), cAMP activity, read-out: Primary assay EC50 Gluc-R.
[11] abbreviates: tris-lipidated peptides, mean of n1 and n2, read-out: Primary assay EC50 Mean pM GLP-1R.
[12] abbreviates: tris-lipidated peptides, replicate n1, read-out: Primary assay EC50 GLP-1R n1.
[13] abbreviates: tris-lipidated peptides, replicate n2, read-out: Primary assay EC50 GLP-1R n2.
Setting [14] is: tris-lipidated peptides, second replicate, read-out: Primary assay EC50 Gluc-R (n2).

The results in this text go back to patent US10414811B2, “Protease-resistant lipidated GLP-1 analogs” (MEDIMMUNE LIMITED, priority 2015, dated 2019).

Read-outs that look alike come from different tables or passages of the source. Numbered stars: 1 amine (or outer) side, 2 acyl side, 3 side chain; on linkers, the order of the positions; unused ones are H or OH. Square brackets hold non-standard residues; d marks the D form. Side chains are listed from the residue outwards. Peptide text beside a SMILES is read from it. * marks the point of attachment. C16 diacid = O=C(O)CCCCCCCCCCCCCCC(=O)*; γGlu = O=C(O)[C@H](CCC(=O)[*:2])N[*:1]; αMeF = C[C@](N)(Cc1ccccc1)C(=O)O; αMeK = C[C@](N)(CCCCN)C(=O)O; Lauroyl = CCCCCCCCCCCC(=O)*; AEEA = NCCOCCOCC(=O)O; Aib = CC(C)(N)C(=O)O

T3 sequence (P47871 26-477): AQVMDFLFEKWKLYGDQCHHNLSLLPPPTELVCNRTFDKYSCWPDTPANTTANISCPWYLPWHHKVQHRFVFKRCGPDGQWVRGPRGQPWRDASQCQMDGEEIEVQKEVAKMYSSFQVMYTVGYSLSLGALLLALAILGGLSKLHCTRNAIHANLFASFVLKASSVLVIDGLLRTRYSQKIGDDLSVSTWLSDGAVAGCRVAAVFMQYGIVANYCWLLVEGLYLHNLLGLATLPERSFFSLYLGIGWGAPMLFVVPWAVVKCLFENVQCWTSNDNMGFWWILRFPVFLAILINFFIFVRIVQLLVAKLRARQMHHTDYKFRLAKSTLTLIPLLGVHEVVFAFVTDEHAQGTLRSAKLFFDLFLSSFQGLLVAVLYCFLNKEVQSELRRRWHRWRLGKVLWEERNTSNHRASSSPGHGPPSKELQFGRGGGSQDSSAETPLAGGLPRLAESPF
T2 sequence (P43220 24-463): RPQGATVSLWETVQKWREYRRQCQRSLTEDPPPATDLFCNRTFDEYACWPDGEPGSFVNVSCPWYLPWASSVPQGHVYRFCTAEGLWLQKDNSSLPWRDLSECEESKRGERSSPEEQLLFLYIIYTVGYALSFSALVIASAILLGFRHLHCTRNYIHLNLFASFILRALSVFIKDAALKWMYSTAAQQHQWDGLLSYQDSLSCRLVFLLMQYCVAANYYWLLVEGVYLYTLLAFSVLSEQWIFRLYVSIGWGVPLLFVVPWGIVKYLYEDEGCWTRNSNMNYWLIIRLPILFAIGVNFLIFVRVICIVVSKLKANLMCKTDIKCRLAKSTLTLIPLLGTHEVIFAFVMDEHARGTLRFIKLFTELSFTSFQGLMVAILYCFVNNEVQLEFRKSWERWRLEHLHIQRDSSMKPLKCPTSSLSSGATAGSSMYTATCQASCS

Take `CC[C@H](C)[C@H](NC(=O)[C@](C)(Cc1ccccc1)NC(=O)[C@H](CCC(=O)O)NC(=O)[C@](C)(CCCCN)NC(=O)[C@H](C)NC(=O)[C@H](C)NC(=O)[C@H](CCC(=O)O)NC(=O)CNC(=O)[C@H](CCC(=O)O)NC(=O)[C@H](CC(C)C)NC(=O)[C@](C)(Cc1ccccc1)NC(=O)[C@H](CO)NC(=O)[C@](C)(CO)NC(=O)[C@@H](NC(=O)[C@H](CC(=O)O)NC(=O)[C@H](CO)NC(=O)[C@@H](NC(=O)[C@](C)(Cc1ccccc1)NC(=O)[C@H](CO)NC(=O)CNC(=O)[C@H](CCC(=O)O)NC(=O)C(C)(C)NC(=O)[C@@H](N)Cc1c[nH]cn1)[C@@H](C)O)C(C)C)C(=O)N[C@@H](C)C(=O)N[C@@](C)(Cc1ccccc1)C(=O)N[C@H](C(=O)N[C@H](C(=O)N[C@@H](CCCCNC(=O)CCCCCNC(=O)CCCCCCCCCCCCCCCCC(=O)O)C(=O)NCC(=O)NCC(N)=O)C(C)C)C(C)C` [compound 194]: the EC50 in experiment [1] (setting [4]) was at least 28 nM; in experiment [1] (setting [5]) it was at least 28 nM; in experiment [2] (setting [6]) it was 240 pM; in experiment [2] (setting [7]), 154 pM; in experiment [2] (setting [8]), 68 pM; in experiment [3] (setting [9]), at least 28 nM. Besides, in experiment [3] (setting [10]), the EC50 is at least 28 nM.
Regarding `CC[C@H](C)[C@H](NC(=O)[C@](C)(Cc1ccccc1)NC(=O)[C@H](CCC(=O)O)NC(=O)[C@](C)(CCCCN)NC(=O)[C@H](C)NC(=O)[C@H](C)NC(=O)[C@H](CCC(=O)O)NC(=O)CNC(=O)[C@H](CCC(=O)O)NC(=O)[C@H](CC(C)C)NC(=O)[C@](C)(Cc1ccccc1)NC(=O)[C@H](CO)NC(=O)[C@](C)(CO)NC(=O)[C@@H](NC(=O)[C@H](CC(=O)O)NC(=O)[C@H](CO)NC(=O)[C@@H](NC(=O)[C@](C)(Cc1ccccc1)NC(=O)[C@H](CO)NC(=O)CNC(=O)[C@H](CCC(=O)O)NC(=O)C(C)(C)NC(=O)[C@@H](N)Cc1c[nH]cn1)[C@@H](C)O)C(C)C)C(=O)N[C@@H](C)C(=O)N[C@@](C)(Cc1ccccc1)C(=O)N[C@H](C(=O)N[C@H](C(=O)N[C@@H](CCCCNC(=O)CCCCCNC(=O)CCCCCNC(=O)CCCCCCCCCCCCCCCCC(=O)O)C(=O)NCC(=O)NCC(N)=O)C(C)C)C(C)C` [compound 195], the EC50 is at least 27 nM in experiment [1] (setting [4]); at least 27 nM in experiment [1] (setting [5]); 170 pM in experiment [2] (setting [6]); 107 pM in experiment [2] (setting [7]); 46 pM in experiment [2] (setting [8]); at least 27 nM in experiment [3] (setting [9]). In addition, the EC50 in experiment [3] (setting [10]) is at least 27 nM.
Turning to `CC[C@H](C)[C@H](NC(=O)[C@H](Cc1ccccc1)NC(=O)[C@H](CCC(=O)O)NC(=O)[C@](C)(CCCCN)NC(=O)[C@H](C)NC(=O)[C@H](C)NC(=O)[C@H](CCC(=O)O)NC(=O)CNC(=O)[C@H](CCC(=O)O)NC(=O)[C@H](CC(C)C)NC(=O)[C@H](Cc1ccc(O)cc1)NC(=O)[C@H](CO)NC(=O)[C@H](CO)NC(=O)[C@H](CCCCNC(=O)COCCOCCNC(=O)COCCOCCNC(=O)CC[C@H](NC(=O)CCCCCCCCCCCCCCC(=O)O)C(=O)O)NC(=O)[C@H](CC(=O)O)NC(=O)[C@H](CO)NC(=O)[C@@H](NC(=O)[C@](C)(Cc1ccccc1)NC(=O)[C@H](CO)NC(=O)CNC(=O)[C@H](CCC(=O)O)NC(=O)C(C)(C)NC(=O)[C@@H](N)Cc1c[nH]cn1)[C@@H](C)O)C(=O)N[C@@H](C)C(=O)N[C@@H](CCCCNC(=O)COCCOCCNC(=O)COCCOCCNC(=O)CC[C@H](NC(=O)CCCCCCCCCCCCCCC(=O)O)C(=O)O)C(=O)N[C@H](C(=O)N[C@H](C(=O)N[C@@H](CCC(=O)O)C(=O)NCC(=O)NCC(N)=O)C(C)C)C(C)C` [compound 260] (H-H[Aib]EGS[αMeF]TSDK([AEEA-AEEA-γGlu-C16 diacid])SSYLEGEAA[αMeK]EFIAK([AEEA-AEEA-γGlu-C16 diacid])VVEGG-NH2; N-terminus assumed), the EC50 in experiment [1] (bis-lipidated peptides, first replicate, read-out: Primary assay EC50 GIP-R (n1)) was at least 21.9 nM; in experiment [2] (bis-lipidated peptides, mean of n1 and n2, read-out: Primary assay EC50 Mean pM GLP-1R), 388 pM; in experiment [2] (bis-lipidated peptides, replicate n1, read-out: Primary assay EC50 GLP-1R n1), 334 pM; in experiment [2] (bis-lipidated peptides, replicate n2, read-out: Primary assay EC50 GLP-1R n2), 443 pM; in experiment [3] (bis-lipidated peptides, first replicate, read-out: Primary assay EC50 Gluc-R (n1)), at least 21.9 nM.
For `CCCCCCCCCCCC(=O)N[C@@H](CCC(=O)NCCOCCOCC(=O)NCCOCCOCC(=O)NCCCC[C@H](NC(=O)CNC(=O)[C@H](CCC(=O)O)NC(=O)[C@H](CC(C)C)NC(=O)[C@H](Cc1ccc(O)cc1)NC(=O)[C@H](CO)NC(=O)[C@H](CO)NC(=O)[C@H](CCCCNC(=O)COCCOCCNC(=O)COCCOCCNC(=O)CC[C@H](NC(=O)CCCCCCCCCCC)C(=O)O)NC(=O)[C@H](CC(=O)O)NC(=O)[C@H](CO)NC(=O)[C@@H](NC(=O)[C@](C)(Cc1ccccc1)NC(=O)[C@H](CO)NC(=O)CNC(=O)[C@H](CCC(=O)O)NC(=O)C(C)(C)NC(=O)[C@@H](N)Cc1c[nH]cn1)[C@@H](C)O)C(=O)N[C@@H](C)C(=O)N[C@@H](C)C(=O)N[C@@](C)(CCCCN)C(=O)N[C@@H](CCC(=O)O)C(=O)N[C@@H](Cc1ccccc1)C(=O)N[C@H](C(=O)N[C@@H](CCCCNC(=O)COCCOCCNC(=O)COCCOCCNC(=O)CC[C@H](NC(=O)CCCCCCCCCCC)C(=O)O)C(=O)N[C@@H](Cc1ccccc1)C(=O)N[C@H](C(=O)N[C@H](C(=O)N[C@@H](CCC(=O)O)C(=O)NCC(=O)NCC(N)=O)C(C)C)C(C)C)[C@@H](C)CC)C(=O)O` [compound 440] (H-H[Aib]EGS[αMeF]TSDK([AEEA-AEEA-γGlu-Lauroyl])SSYLEGK([AEEA-AEEA-γGlu-Lauroyl])AA[αMeK]EFIK([AEEA-AEEA-γGlu-Lauroyl])FVVEGG-NH2; N-terminus assumed), the EC50 came out at 19.7 nM in experiment [1] (tris-lipidated peptides, first replicate, read-out: Primary assay EC50 GIP-R (n1)); 130 pM in experiment [2] (setting [11]); 96.7 pM in experiment [2] (setting [12]); 164 pM in experiment [2] (setting [13]); 19.7 nM in experiment [3] (setting [14]).
Consider `CCCCCCCCCCCC(=O)N[C@@H](CCC(=O)NCCOCCOCC(=O)NCCOCCOCC(=O)NCCCC[C@H](NC(=O)[C@H](CCC(=O)O)NC(=O)CNC(=O)[C@H](CCC(=O)O)NC(=O)[C@H](CC(C)C)NC(=O)[C@H](Cc1ccc(O)cc1)NC(=O)[C@H](CO)NC(=O)[C@H](CO)NC(=O)[C@H](CCCCNC(=O)COCCOCCNC(=O)COCCOCCNC(=O)CC[C@H](NC(=O)CCCCCCCCCCC)C(=O)O)NC(=O)[C@H](CC(=O)O)NC(=O)[C@H](CO)NC(=O)[C@@H](NC(=O)[C@](C)(Cc1ccccc1)NC(=O)[C@H](CO)NC(=O)CNC(=O)[C@H](CCC(=O)O)NC(=O)C(C)(C)NC(=O)[C@@H](N)Cc1c[nH]cn1)[C@@H](C)O)C(=O)N[C@@H](C)C(=O)N[C@@](C)(CCCCN)C(=O)N[C@@H](CCC(=O)O)C(=O)N[C@@H](Cc1ccccc1)C(=O)N[C@H](C(=O)N[C@@H](CCCCNC(=O)COCCOCCNC(=O)COCCOCCNC(=O)CC[C@H](NC(=O)CCCCCCCCCCC)C(=O)O)C(=O)N[C@@H](Cc1ccccc1)C(=O)N[C@H](C(=O)N[C@H](C(=O)N[C@@H](CCC(=O)O)C(=O)NCC(=O)NCC(N)=O)C(C)C)C(C)C)[C@@H](C)CC)C(=O)O` [compound 441] (H-H[Aib]EGS[αMeF]TSDK([AEEA-AEEA-γGlu-Lauroyl])SSYLEGEK([AEEA-AEEA-γGlu-Lauroyl])A[αMeK]EFIK([AEEA-AEEA-γGlu-Lauroyl])FVVEGG-NH2), for which the EC50 in experiment [1] (tris-lipidated peptides, second replicate, read-out: Primary assay EC50 GIP-R (n2)) is 19.5 nM; in experiment [2] (setting [11]) it was 176 pM; in experiment [2] (setting [12]), 110 pM; in experiment [2] (setting [13]), 241 pM; in experiment [3] (setting [14]), 19.5 nM.
